Where two headings read alike, the source gives them in different places.
How the values were obtained:
[1] = target: T1, human equilibrative nucleoside transporter 1 (hENT1) (Homo sapiens, UniProt Q99808, N48Q); assay: proteoliposome competition assay with 3H-adenosine, […] reduction at […]; assay type: biochemical; details: read-out: % reduction at 500 μmol/L
T1 construct: gene SLC29A1; full-length, residues 1-456
T1 sequence (Q99808 1-456 N48Q): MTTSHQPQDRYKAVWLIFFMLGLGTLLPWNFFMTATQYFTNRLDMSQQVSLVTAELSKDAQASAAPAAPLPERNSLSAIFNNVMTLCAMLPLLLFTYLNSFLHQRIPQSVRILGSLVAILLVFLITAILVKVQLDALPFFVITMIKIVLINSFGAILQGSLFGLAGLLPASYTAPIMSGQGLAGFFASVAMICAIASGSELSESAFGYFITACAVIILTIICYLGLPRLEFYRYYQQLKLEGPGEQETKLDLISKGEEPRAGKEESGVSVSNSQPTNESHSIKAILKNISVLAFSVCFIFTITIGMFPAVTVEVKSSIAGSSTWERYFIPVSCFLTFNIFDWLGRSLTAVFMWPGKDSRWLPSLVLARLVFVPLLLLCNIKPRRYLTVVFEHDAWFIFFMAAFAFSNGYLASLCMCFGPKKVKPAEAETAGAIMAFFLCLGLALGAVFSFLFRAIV

[2] = target: T1, human equilibrative nucleoside transporter 1 (hENT1); assay: ITC; assay type: binding

| Compound | inhibition at 500 µM [1] [%] | other results |
| --- | --- | --- |
| Nc1nc2c(ncn2[C@H]2C[C@H](O)[C@@H](CO)O2)c(=O)[nH]1 [deoxyguanosine] | > 90 | – |
| O=c1ccn([C@@H]2O[C@H](CO)[C@@H](O)[C@H]2O)c(=O)[nH]1 [uridine] | > 90 | – |
| Nc1ncnc2c1ncn2[C@H]1C[C@H](O)[C@@H](CO)O1 [deoxyadenosine] | – | Kd ([2]; read-out: Kd): 190 ± 40 µM |
| Cc1cn([C@@H]2O[C@H](CO)[C@@H](O)[C@H]2O)c(=O)[nH]c1=O [5-methyluridine] | > 90 | – |
| O=c1ccn([C@H]2C[C@H](O)[C@@H](CO)O2)c(=O)[nH]1 [deoxyuridine] | > 90 | – |
| Nc1ncnc2nc[nH]c12 [adenine] | – | Kd [2]: 5000 ± 500 µM |
| Cc1cn([C@H]2C[C@H](O)[C@@H](CO)O2)c(=O)[nH]c1=O [thymidine] | > 90 | – |

Reference: publication PMC5359181 (Protein & Cell, 2016)
